Data published in ChEMBL document CHEMBL4507281, “Data for DCP probe BI-4394” (2021).

Tests used:
[1] = molecular target: Histamine H3 receptor (Homo sapiens) (UniProt Q9Y5N1); details: Compound concentration 10.0 uM
[2] = molecular target: Cyclin-dependent kinase 2 homolog (Plasmodium falciparum (isolate 3D7)) (UniProt P61075); details: Compound concentration 100.0 nM
[3] = molecular target: T1, Aurora kinase A (Homo sapiens) (UniProt O14965); details: Compound concentration 100.0 nM
T1 sequence (whole entry): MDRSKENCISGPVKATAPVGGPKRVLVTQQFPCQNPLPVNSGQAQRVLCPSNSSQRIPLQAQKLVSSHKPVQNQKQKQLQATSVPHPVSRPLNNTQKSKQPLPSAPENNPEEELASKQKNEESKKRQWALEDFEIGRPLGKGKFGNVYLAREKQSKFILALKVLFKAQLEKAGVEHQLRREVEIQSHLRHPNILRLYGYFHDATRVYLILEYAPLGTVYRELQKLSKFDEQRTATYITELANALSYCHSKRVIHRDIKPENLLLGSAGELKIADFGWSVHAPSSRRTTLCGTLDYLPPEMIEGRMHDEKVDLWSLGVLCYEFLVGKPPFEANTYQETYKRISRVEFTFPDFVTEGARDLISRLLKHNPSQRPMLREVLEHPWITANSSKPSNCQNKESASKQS

[4] = molecular target: Ribosomal protein S6 kinase alpha-1 (Homo sapiens) (UniProt Q15418); details: Compound concentration 100.0 nM
[5] = molecular target: Ephrin type-A receptor 5 (Homo sapiens) (UniProt P54756); details: Compound concentration 100.0 nM
Sequence of Ephrin type-A receptor 5 (Homo sapiens) (P54756 whole entry): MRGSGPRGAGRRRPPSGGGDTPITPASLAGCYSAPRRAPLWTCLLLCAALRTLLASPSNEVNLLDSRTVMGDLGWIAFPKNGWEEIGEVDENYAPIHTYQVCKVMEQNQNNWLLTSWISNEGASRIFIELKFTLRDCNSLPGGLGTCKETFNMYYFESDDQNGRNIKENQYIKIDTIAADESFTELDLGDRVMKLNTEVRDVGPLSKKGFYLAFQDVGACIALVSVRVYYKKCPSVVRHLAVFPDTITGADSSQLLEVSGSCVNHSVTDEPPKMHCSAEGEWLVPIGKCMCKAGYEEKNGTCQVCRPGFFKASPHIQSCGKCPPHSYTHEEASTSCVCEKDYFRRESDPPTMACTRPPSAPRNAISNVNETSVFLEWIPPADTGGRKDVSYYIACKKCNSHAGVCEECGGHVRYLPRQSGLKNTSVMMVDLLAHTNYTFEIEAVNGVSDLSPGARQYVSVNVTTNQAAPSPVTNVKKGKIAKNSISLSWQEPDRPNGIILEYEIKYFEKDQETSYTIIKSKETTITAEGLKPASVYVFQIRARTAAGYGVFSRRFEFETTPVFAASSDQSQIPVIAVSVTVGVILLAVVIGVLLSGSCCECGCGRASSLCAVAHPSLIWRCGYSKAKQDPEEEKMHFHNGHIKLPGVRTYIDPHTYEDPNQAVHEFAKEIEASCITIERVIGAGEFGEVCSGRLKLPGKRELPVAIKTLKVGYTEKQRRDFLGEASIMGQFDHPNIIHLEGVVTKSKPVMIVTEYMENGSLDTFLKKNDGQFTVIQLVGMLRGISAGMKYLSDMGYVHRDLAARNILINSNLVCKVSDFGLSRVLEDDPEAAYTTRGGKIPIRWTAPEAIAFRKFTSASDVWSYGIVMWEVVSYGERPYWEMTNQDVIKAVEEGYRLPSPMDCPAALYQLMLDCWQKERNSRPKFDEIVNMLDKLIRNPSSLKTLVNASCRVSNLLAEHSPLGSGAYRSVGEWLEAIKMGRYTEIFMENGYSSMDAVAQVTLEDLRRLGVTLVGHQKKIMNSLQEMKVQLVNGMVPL

[6] = molecular target: Aurora kinase B (Homo sapiens) (UniProt Q96GD4); details: Compound concentration 100.0 nM
Sequence of Aurora kinase B (Homo sapiens) (Q96GD4 whole entry): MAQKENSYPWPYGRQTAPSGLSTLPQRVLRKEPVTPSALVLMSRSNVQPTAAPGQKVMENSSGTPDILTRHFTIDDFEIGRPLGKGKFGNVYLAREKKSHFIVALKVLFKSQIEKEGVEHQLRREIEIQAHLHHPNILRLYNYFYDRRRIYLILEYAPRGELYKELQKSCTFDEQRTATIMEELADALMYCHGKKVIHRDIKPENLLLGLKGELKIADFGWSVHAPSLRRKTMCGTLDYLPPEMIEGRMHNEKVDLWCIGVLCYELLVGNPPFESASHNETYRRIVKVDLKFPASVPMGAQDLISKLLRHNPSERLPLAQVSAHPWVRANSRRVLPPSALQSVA

[7] = molecular target: Ephrin type-B receptor 1 (Homo sapiens) (UniProt P54762); details: Compound concentration 100.0 nM
[8] = molecular target: Homeodomain-interacting protein kinase 3 (Homo sapiens) (UniProt Q9H422); details: Compound concentration 100.0 nM
Sequence of Homeodomain-interacting protein kinase 3 (Homo sapiens) (Q9H422 whole entry, looked up): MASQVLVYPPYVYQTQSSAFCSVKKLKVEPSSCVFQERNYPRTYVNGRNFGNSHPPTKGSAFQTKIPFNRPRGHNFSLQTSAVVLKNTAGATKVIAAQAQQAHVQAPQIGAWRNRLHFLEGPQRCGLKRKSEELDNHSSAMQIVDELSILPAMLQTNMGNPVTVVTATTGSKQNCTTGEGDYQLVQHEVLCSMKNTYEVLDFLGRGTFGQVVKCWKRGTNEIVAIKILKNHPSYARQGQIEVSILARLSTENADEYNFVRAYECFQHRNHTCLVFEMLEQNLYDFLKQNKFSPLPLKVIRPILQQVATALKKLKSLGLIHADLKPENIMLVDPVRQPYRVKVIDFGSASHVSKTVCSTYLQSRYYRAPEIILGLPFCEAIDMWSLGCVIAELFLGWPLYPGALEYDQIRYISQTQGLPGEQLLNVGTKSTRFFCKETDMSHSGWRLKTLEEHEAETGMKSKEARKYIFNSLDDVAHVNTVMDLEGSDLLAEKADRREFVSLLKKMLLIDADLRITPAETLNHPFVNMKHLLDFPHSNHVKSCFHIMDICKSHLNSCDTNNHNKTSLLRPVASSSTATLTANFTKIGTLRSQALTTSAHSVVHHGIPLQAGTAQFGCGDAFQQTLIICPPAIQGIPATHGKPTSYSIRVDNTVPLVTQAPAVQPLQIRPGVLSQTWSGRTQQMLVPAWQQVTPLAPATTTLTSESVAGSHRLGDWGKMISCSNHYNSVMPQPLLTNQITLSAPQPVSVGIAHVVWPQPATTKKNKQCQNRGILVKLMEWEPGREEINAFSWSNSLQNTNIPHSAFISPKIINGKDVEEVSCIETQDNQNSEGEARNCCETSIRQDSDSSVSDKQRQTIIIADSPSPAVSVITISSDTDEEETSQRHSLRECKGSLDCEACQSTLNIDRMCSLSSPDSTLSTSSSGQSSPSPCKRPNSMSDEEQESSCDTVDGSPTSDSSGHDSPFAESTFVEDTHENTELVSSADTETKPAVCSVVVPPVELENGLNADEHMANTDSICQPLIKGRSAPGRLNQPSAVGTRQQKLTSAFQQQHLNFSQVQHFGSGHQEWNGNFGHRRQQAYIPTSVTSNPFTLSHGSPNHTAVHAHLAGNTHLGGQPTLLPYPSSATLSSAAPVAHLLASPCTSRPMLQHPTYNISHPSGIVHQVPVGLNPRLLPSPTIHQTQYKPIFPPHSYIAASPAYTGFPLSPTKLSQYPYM

[9] = molecular target: SNF-related serine/threonine-protein kinase (Homo sapiens) (UniProt Q9NRH2); details: Compound concentration 100.0 nM
[10] = molecular target: Leucine-rich repeat serine/threonine-protein kinase 2 (Homo sapiens) (UniProt Q5S007); details: Compound concentration 100.0 nM
[11] = molecular target: ALK tyrosine kinase receptor (Homo sapiens) (UniProt Q9UM73); details: Compound concentration 100.0 nM
[12] = molecular target: Cyclin-dependent kinase 2 (Homo sapiens) (UniProt P24941); details: Compound concentration 100.0 nM
[13] = molecular target: Muscarinic acetylcholine receptor M5 (Homo sapiens) (UniProt P08912); details: Compound concentration 10.0 uM
[14] = molecular target: Cytoplasmic tyrosine-protein kinase BMX (Homo sapiens) (UniProt P51813); details: Compound concentration 100.0 nM
[15] = molecular target: Serine/threonine-protein kinase VRK2 (Homo sapiens) (UniProt Q86Y07); details: Compound concentration 100.0 nM
[16] = molecular target: Transient receptor potential cation channel subfamily M member 6 (Homo sapiens) (UniProt Q9BX84); details: Compound concentration 100.0 nM
[17] = system: Hepatocyte growth factor receptor (Homo sapiens), P08581 [Y1235D]; details: Compound concentration 100.0 nM
[18] = molecular target: Serine/threonine-protein kinase Nek9 (Homo sapiens) (UniProt Q8TD19); details: Compound concentration 100.0 nM
[19] = molecular target: Dual specificity tyrosine-phosphorylation-regulated kinase 1B (Homo sapiens) (UniProt Q9Y463); details: Compound concentration 100.0 nM
[20] = molecular target: Serine/threonine-protein kinase 17A (Homo sapiens) (UniProt Q9UEE5); details: Compound concentration 100.0 nM
[21] = molecular target: Phosphatidylinositol 5-phosphate 4-kinase type-2 gamma (Homo sapiens) (UniProt Q8TBX8); details: Compound concentration 100.0 nM
[22] = molecular target: Protein kinase C delta type (Homo sapiens) (UniProt Q05655); details: Compound concentration 100.0 nM
[23] = molecular target: Homeodomain-interacting protein kinase 2 (Homo sapiens) (UniProt Q9H2X6); details: Compound concentration 100.0 nM
Sequence of Homeodomain-interacting protein kinase 2 (Homo sapiens) (Q9H2X6 whole entry, looked up): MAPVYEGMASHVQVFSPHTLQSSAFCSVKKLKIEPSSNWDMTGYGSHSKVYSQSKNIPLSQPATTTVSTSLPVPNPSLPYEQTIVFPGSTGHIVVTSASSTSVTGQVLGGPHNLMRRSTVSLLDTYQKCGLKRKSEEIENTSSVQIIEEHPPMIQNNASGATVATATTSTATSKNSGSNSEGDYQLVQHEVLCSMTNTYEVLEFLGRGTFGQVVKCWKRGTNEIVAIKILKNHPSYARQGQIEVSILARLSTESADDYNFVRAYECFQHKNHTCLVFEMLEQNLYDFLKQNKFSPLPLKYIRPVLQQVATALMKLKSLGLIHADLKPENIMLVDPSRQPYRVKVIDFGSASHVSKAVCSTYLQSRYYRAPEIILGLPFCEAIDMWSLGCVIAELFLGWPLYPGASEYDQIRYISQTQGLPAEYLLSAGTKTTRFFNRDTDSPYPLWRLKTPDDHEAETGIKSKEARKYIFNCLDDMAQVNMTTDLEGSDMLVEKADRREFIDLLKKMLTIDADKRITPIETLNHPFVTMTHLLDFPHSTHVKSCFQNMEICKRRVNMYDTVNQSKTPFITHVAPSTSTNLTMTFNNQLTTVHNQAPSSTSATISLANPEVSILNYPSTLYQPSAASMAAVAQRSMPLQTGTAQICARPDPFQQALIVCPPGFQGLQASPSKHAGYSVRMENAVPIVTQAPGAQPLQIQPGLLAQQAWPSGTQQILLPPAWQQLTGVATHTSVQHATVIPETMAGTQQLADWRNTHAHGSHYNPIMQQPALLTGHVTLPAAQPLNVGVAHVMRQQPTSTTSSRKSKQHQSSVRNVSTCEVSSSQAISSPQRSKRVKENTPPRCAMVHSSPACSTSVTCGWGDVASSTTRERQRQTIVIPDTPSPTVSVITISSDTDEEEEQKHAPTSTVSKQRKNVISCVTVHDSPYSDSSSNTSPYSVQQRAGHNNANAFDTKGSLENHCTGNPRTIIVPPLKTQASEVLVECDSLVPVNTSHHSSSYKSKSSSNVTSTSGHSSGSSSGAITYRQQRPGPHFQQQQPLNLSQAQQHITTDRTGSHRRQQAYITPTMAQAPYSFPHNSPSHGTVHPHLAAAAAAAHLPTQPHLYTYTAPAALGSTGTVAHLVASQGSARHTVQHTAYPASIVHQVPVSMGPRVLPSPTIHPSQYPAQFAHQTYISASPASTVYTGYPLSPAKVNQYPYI

[24] = system: Hepatocyte growth factor receptor (Homo sapiens), P08581 [M1250T]; details: Compound concentration 100.0 nM
[25] = molecular target: Serine/threonine-protein kinase NLK (Homo sapiens) (UniProt Q9UBE8); details: Compound concentration 100.0 nM
[26] = system: Tyrosine-protein kinase ABL1 (Homo sapiens), P00519 [F317L]; details: Compound concentration 100.0 nM
[27] = molecular target: T2, Serine/threonine-protein kinase Chk1 (Homo sapiens) (UniProt O14757); details: Compound concentration 100.0 nM
T2 sequence (whole entry): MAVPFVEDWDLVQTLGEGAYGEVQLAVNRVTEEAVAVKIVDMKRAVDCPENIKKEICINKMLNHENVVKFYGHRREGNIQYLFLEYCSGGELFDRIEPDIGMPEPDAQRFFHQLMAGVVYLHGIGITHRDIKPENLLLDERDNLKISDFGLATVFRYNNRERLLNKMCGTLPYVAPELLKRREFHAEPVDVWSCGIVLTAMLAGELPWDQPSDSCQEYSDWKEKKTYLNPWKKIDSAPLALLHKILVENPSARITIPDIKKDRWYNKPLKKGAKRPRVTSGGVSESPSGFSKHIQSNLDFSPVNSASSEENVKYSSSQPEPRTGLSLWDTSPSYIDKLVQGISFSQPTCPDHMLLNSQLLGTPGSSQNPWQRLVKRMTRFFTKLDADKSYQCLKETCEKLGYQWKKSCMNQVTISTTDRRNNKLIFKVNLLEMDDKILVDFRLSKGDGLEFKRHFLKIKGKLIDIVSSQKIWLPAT

[28] = molecular target: Tyrosine-protein kinase ITK/TSK (Homo sapiens) (UniProt Q08881); details: Compound concentration 100.0 nM
[29] = molecular target: Serine/threonine-protein kinase 33 (Homo sapiens) (UniProt Q9BYT3); details: Compound concentration 100.0 nM
Sequence of Serine/threonine-protein kinase 33 (Homo sapiens) (Q9BYT3 whole entry, looked up): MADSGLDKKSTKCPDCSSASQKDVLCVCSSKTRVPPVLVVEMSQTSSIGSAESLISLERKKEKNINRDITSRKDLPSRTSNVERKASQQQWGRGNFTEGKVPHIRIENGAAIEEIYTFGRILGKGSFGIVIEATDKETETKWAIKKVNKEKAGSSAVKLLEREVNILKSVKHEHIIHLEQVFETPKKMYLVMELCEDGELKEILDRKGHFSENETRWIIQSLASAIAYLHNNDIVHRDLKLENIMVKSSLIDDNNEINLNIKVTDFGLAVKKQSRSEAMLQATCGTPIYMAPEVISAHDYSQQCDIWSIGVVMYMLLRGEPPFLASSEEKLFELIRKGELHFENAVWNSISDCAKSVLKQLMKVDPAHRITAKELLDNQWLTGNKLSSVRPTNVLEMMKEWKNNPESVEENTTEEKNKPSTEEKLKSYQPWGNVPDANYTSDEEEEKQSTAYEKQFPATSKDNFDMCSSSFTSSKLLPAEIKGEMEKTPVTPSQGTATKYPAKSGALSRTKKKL

[30] = molecular target: Serine/threonine-protein kinase WNK4 (Homo sapiens) (UniProt Q96J92); details: Compound concentration 100.0 nM
[31] = molecular target: Death-associated protein kinase 3 (Homo sapiens) (UniProt O43293); details: Compound concentration 100.0 nM
[32] = molecular target: Calcium/calmodulin-dependent protein kinase kinase 2 (Homo sapiens) (UniProt Q96RR4); details: Compound concentration 100.0 nM
[33] = system: eIF-2-alpha kinase GCN2 (Homo sapiens), Q9P2K8 [S808G]; details: Compound concentration 100.0 nM

Sequence of Histamine H3 receptor (Homo sapiens) (Q9Y5N1 whole entry): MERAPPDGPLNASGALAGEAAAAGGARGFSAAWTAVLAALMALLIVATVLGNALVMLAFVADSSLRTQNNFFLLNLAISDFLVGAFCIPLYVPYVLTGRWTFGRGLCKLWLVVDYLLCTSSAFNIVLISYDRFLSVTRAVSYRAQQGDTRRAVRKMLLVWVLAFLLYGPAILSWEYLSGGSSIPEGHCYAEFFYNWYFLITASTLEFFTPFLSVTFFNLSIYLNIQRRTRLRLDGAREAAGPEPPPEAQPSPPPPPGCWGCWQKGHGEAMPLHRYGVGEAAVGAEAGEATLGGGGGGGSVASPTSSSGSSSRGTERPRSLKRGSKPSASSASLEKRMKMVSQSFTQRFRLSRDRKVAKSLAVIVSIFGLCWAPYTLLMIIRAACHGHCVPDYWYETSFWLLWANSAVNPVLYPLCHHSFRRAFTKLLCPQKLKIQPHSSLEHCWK
Sequence of Cyclin-dependent kinase 2 homolog (Plasmodium falciparum (isolate 3D7)) (P61075 whole entry): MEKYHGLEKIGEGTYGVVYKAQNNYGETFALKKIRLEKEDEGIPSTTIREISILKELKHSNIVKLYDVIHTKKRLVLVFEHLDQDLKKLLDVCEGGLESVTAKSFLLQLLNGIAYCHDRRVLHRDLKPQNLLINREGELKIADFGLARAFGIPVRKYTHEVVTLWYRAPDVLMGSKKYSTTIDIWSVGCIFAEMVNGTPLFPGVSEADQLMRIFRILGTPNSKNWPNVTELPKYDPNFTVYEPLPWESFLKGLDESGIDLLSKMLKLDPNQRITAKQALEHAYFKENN

CCOC(=O)c1cc2cc(-c3cc(C(=O)NCc4ccc(C(=O)O)cc4)nn3C)ccc2[nH]1 [BI 4394]
inactive: inhibition [1] 8.18% | residual activity [2] 65% | residual activity [3] 90% | residual activity [4] 84% | residual activity [5] 100% | residual activity [6] 100% | residual activity [7] 100% | residual activity [8] 81% | residual activity [9] 80% | residual activity [10] 81% | residual activity [11] 98% | residual activity [12] 90% | inhibition [13] 7.64% | residual activity [14] 82% | residual activity [15] 98% | residual activity [16] 95% | residual activity [17] 86% | residual activity [18] 98% | residual activity [19] 100% | residual activity [20] 97% | residual activity [21] 95% | residual activity [22] 90% | residual activity [23] 82% | residual activity [24] 87% | residual activity [25] 86% | residual activity [26] 61% | residual activity [27] 100% | residual activity [28] 100% | residual activity [29] 100% | residual activity [30] 97% | residual activity [31] 98% | residual activity [32] 95% | residual activity [33] 100%

Cn1nc(C(=O)NCc2ccc(C(=O)O)cc2)cc1-c1ccc2[nH]ccc2c1 [BI 4395]
inactive: inhibition [1] -4.12% | residual activity [2] 74% | residual activity [3] 100% | residual activity [4] 95% | residual activity [5] 92% | residual activity [6] 92% | residual activity [7] 87% | residual activity [8] 88% | residual activity [9] 92% | residual activity [10] 75% | residual activity [11] 80% | residual activity [12] 91% | inhibition [13] -7.43% | residual activity [14] 98% | residual activity [15] 91% | residual activity [16] 79% | residual activity [17] 100% | residual activity [18] 99% | residual activity [19] 100% | residual activity [20] 92% | residual activity [21] 63% | residual activity [22] 89% | residual activity [23] 97% | residual activity [24] 91% | residual activity [25] 100% | residual activity [26] 87% | residual activity [27] 83% | residual activity [28] 85% | residual activity [29] 87% | residual activity [30] 100% | residual activity [31] 86% | residual activity [32] 80% | residual activity [33] 94%
